One experiment deals with T1, 5-HT1D receptor (Homo sapiens, UniProt P28221).
T1 construct: expressed in transfected cells
Put plainly: Binding affinity, 3H-serotonin displacement from membranes of cells expressing 5-HT1D. Particulars: binding of radioligand inhibited in the presence of 100 nM of test compound; 3H-serotonin 1 nM; read-out: percent inhibition at the 5-HT1D receptor. How it is done: (§1) Selected compounds of the previous examples, as well as reference compounds, were evaluated for binding affinity using cell types receptive specifically to 5-HT1D and 5-HT1B ligands. The assay protocol generally entailed the incubation of membranes prepared from cells expressing the 5-HT1D or 5-HT1B subtype of 5-HT receptors with ^3H-serotonin (1 nM for 5-HT1D and 2.5 nM for 5-HT1B). Specific concentrations of the test compound were incubated with the radioligand and the membrane homogenates prepared from the recombinant cells. After a 60 minute incubation at 22° C., the incubation was terminated by vacuum filtration. The filters were washed with buffer and counted for radioactivity using liquid scintillation spectroscopy. The affinity of the test compound for the 5-HT1D receptor is expressed as the amount (in percent) of binding of the radioligand that is inhibited in the presence of 100 nM of test compound. A greater percent inhibition indicates greater affinity for the 5-HT1D receptor.

The target in another experiment is T2, 5-HT1B receptor (Homo sapiens, UniProt P28222).
T2 construct: expressed in transfected cells
T2 sequence (P28222 whole entry): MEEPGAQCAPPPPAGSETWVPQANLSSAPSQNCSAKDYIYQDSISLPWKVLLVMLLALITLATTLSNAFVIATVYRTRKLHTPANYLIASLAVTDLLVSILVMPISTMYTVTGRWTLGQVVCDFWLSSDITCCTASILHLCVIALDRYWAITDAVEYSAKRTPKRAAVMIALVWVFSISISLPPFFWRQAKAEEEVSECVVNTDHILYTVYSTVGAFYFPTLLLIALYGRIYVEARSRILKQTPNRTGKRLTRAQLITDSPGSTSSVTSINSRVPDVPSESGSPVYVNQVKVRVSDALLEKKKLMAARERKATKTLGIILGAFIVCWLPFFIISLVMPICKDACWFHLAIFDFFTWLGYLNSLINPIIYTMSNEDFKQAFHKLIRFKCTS
Briefly: Binding affinity, 3H-serotonin displacement from membranes of cells expressing 5-HT1B. Particulars: 1 h; 3H-serotonin 2.5 nM; selectivity comparison; read-out: percent inhibition at the 5-HT1B receptor. How it is done: as §1

T1 sequence (P28221 whole entry): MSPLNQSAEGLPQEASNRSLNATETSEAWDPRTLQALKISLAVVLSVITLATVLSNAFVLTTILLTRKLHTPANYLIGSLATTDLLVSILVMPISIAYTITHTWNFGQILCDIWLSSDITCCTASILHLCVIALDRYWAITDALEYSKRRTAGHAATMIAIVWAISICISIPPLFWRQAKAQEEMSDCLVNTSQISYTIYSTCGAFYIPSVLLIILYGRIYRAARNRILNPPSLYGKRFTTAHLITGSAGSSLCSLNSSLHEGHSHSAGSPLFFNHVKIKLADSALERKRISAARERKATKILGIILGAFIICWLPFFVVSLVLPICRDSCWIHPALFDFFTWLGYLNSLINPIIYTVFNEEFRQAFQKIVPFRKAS

Usually inhibition stands for the drop in the measured response relative to a control, in per cent. As to `CCN(CC)CCn1ncc2ccc(C3CCOCC3)cc21` [Example 16, 1-(2-(N,N-diethylamino)ethyl)-6-(tetrahydropyran-4-yl)-1H-indazole], the values for the inhibition at 0.1 µM at 5-HT1D receptor and at 5-HT1B receptor were > 75% and < 15%, respectively.

For the compound `CN(C)CCn1ccc2ccc(-c3cccnc3)cc21` [Example 10w, 1-(2-(N,N-dimethylamino)ethyl)-6-(3-pyridinyl)-1H-indole], the inhibition at 0.1 µM on 5-HT1D receptor was > 90%.

For `c1cc(-c2ccc3cnn(CCNC4CC4)c3c2)cs1` [Example 9p, 1-(2-(N-cyclopropylamino)ethyl)-6-(3-thienyl)-1H-indazole], the inhibition at 0.1 µM on 5-HT1D receptor is > 75%.

`CCN(CC)CCn1ccc2ccc(C3CCSCC3)cc21` [Example 5e, 1-(2-(N,N-diethylamino)ethyl)-6-(tetrahydrothiopyran-4-yl)-1H-indole]: the inhibition at 0.1 µM is > 75% on 5-HT1D receptor and < 15% on 5-HT1B receptor.

For `c1cc(-c2ccc3cnn(CCN4CCCC4)c3c2)cs1` [Example 9i, 1-(2-(N-pyrrolidinyl)ethyl)-6-(3-thienyl)-1H-indazole], the inhibition at 0.1 µM at 5-HT1D receptor was > 75%; on 5-HT1B receptor, < 15%.

On to `CN(C)CCn1ccc2ccc(-c3cccs3)cc21` [Example 10t, 1-(2-(N,N-dimethylamino)ethyl)-6-(2-thienyl)-1H-indole], for which, on 5-HT1D receptor, the inhibition at 0.1 µM is > 75%.

In the case of `CN(C)CCn1ncc2ccc(-c3cccs3)cc21` [Example 10, 1-(2-(N,N-dimethylamino)ethyl)-6-(2-thienyl)-1H-indazole], the inhibition at 0.1 µM at 5-HT1D receptor is > 75%; at 5-HT1B receptor it was < 50%.

Turning to `CN(C)CCn1ncc2ccc(-c3ccncc3)cc21` [Example 12, 1-(2-(N,N-dimethylamino)ethyl)-6(4-pyridinyl)-1H-indazole], the inhibition at 0.1 µM at 5-HT1D receptor is > 75%.

For `CCN(CC)CCn1ccc2ccc(-c3cccnc3)cc21` [Example 10dd, 1-(2-(N,N-diethylamino)ethyl)-6-(3-pyridinyl)-1H-indole], the inhibition at 0.1 µM at 5-HT1D receptor was > 75%.

In the case of `CN(C)CCn1ncc2ccc(-c3ccsc3)cc21` [Example 10b, 1-(2-(N,N-dimethylamino)ethyl)-6-(3-thienyl)-1H-indazole], the inhibition at 0.1 µM at 5-HT1D receptor is > 90%.

As to `CCN(CC)CCn1ncc2ccc(-c3cc4ccccc4o3)cc21` [Example 10o, 1-(2-(N,N-diethylamino)ethyl)-6-(benzofuran-2-yl)-1H-indazole], on 5-HT1D receptor, the inhibition at 0.1 µM is > 50%.

`CCN(CC)CCn1ncc2ccc(-c3ccsc3)cc21` [Example 9b, 1-(2-(N,N-diethylamino)ethyl)-6-(3-thienyl)-1H-indazole]: the results for the inhibition at 0.1 µM at 5-HT1D receptor and on 5-HT1B receptor were > 75% and < 15%, respectively.

With `CCN(CC)CCn1ncc2ccc(-c3ccoc3)cc21` [Example 10i, 1-(2-(N,N-diethylamino)ethyl)-6-(furan-3-yl)-1H-indazole], the inhibition at 0.1 µM at 5-HT1D receptor was > 75%; on 5-HT1B receptor, < 15%.

Turning to `CN(C)CCn1ccc2ccc(-c3ccccn3)cc21` [Example 12b, 1-(2-(N,N-dimethylamino)ethyl)-6-(pyridin-2-yl)-1H-indole], on 5-HT1D receptor, the inhibition at 0.1 µM was > 50%.

For the compound `CN(C)CCn1ccc2ccc(C3(O)CCSCC3)cc21` [Example 3, 1-(2-(N,N-Dimethylamino)ethyl)-6-(4-hydroxy-tetrahydro-thiopyran-4-yl)-1H-indole], the inhibition at 0.1 µM is > 75% at 5-HT1D receptor and < 15% at 5-HT1B receptor.

Take `CN(C)CCn1ccc2ccc(C3(O)CCOCC3)cc21` [Example 6, 6-(4-hydroxy-tetrahydropyran-4-yl)-1-(2-(N,N-dimethylamino)ethyl)-1H-indole]: the inhibition at 0.1 µM at 5-HT1D receptor was > 90%.

With `CCN(CC)CCn1ncc2ccc(-c3cccnc3)cc21` [Example 10h, 1-(2-(N,N-diethylamino)ethyl)-6-(3-pyridinyl)-1H-indazole], the inhibition at 0.1 µM at 5-HT1D receptor is > 75%; at 5-HT1B receptor it was < 15%.

With `CCN(CC)CCn1ncc2ccc(C3CCSCC3)cc21` [Example 16d, 1-(2-(N,N-diethylamino)ethyl)-6-(tetrahydrothiopyran-4-yl)-1H-indazole], the inhibition at 0.1 µM at 5-HT1D receptor was > 75%.

The values are drawn from patent US6635639B2, “Use of N-alkylamino-heterocylic compounds for the treatment of migraine” (NPS Allelix Corp., priority 1998, dated 2003).
